From patent US9073821B2, “Hydroxamic acid derivative” (priority 2010, dated 2015)

Biological target: Pseudomonas aeruginosa LpxC enzyme (Pseudomonas aeruginosa (strain ATCC 15692 / DSM 22644 / CIP 104116 / JCM 14847 / LMG 12228 / 1C / PRS 101 / PAO1), UniProt P47205)
Assay: biochemical
Format: biochemical
Conditions: class symbols A/B/C by IC50; Table 3; read-out: Enzyme inhibitory activity (inhibitory activity on Pseudomonas aeruginosa LpxC enzyme)

Row | IC50 | Compound
1 | < 0.01 µM | CNC(=O)C(C(=O)NO)N(C)C(=O)c1ccc(C#Cc2ccc(N3CCC(N4CCOCC4)CC3)cc2)cc1 (stereo not shown) [Compound 496, N-hydroxy-N′-methyl-2-(methyl {[4-({4-[4-(morpholin-4-yl)piperidin-1-yl]phenyl}ethynyl)phenyl]carbonyl}amino)propanediamide]
2 | 0.01 to 0.1 µM | CCn1cc(C#Cc2ccc(C(=O)N(C)C(C(=O)NC)C(=O)NO)cc2)cn1 (stereo not shown) [Compound 517, 2-[({4-[(1-ethyl-1H-pyrazol-4-yl)ethynyl]phenyl}carbonyl)(methyl)amino]-N-hydroxy-N′-methylpropanediamide]

Same assay, conditions: inhibitory activity on Pseudomonas aeruginosa LpxC enzyme, class symbols A/B/C; read-out: Enzyme inhibitory activity

Row | IC50 | Compound
3 | 0.01 to 0.1 µM | CNC(=O)C(C(=O)NO)N(C)C(=O)c1ccc(-c2ccc(CN3CCOCC3)cc2)cc1 (stereo not shown) [Compound 232, N-hydroxy-N′-methyl-2-(methyl {[4′-(morpholin-4-ylmethyl)biphenyl-4-yl]carbonyl}amino)propanediamide]
4 | < 0.01 µM | CNC(=O)C(C(=O)NO)N(C)C(=O)c1ccc(C#Cc2ccc(OCCCN3CCOCC3)cc2)cc1 (stereo not shown) [Compound 465, N-hydroxy-N′-methyl-2-(methyl {[4-({4-[3-(morpholin-4-yl)propoxy]phenyl}ethynyl)phenyl]carbonyl}amino)propanediamide]
5 | 0.01 to 0.1 µM | CNC(=O)C(NC(=O)c1ccc(-c2ccc(NCCO)cc2)cc1)C(=O)NO (stereo not shown) [Compound 114, N-hydroxy-2-[({4′-[(2-hydroxyethyl)amino]biphenyl-4-yl}carbonyl)amino]-N′-methylpropanediamide]
6 | < 0.01 µM | CNC(=O)C(C(=O)NO)N(C)C(=O)c1ccc(C#Cc2ccc(CN3CCN(C)CC3)cc2)cc1 (stereo not shown) [Compound 304, N-hydroxy-N′-methyl-2-(methyl {[4-({4-[(4-methylpiperazin-1-yl)methyl]phenyl}ethynyl)phenyl]carbonyl}amino)propanediamide]
7 | < 0.01 µM | CNC(=O)C(C(=O)NO)N(CC(F)F)C(=O)c1ccc(-c2ccccc2)cc1 (stereo not shown) [Compound 174, 2-[(biphenyl-4-ylcarbonyl)(2,2-difluoroethyl)amino]-N-hydroxy-N′-methylpropanediamide]
8 | < 0.01 µM | CNC(=O)C(C(=O)NO)N(C)C(=O)c1ccc(-c2ccc(OCc3ccc(N4CCN(C)CC4)cc3)cc2)cc1 (stereo not shown) [Compound 90, N-hydroxy-N′-methyl-2-{methyl[(4′-{[4-(4-methylpiperazin-1-yl)benzyl]oxy}biphenyl-4-yl)carbonyl]amino}propanediamide]
9 | < 0.01 µM | CNC(=O)C(C(=O)NO)N(C)C(=O)c1ccc(-c2ccc(/N=C/NO)cc2)cc1 (stereo not shown) [Compound 272, N-hydroxy-2-{[(4′-{[(E)-(hydroxyamino)methylidene]amino}biphenyl-4-yl)carbonyl](methyl)amino}-N′-methylpropanediamide]
10 | < 0.01 µM | CNC(=O)C(C(=O)NO)N(C(=O)c1ccc(-c2ccc(OCCCN3CCOCC3)cc2)cc1)C1CC1 (stereo not shown) [Compound 198, 2-[cyclopropyl({4′-[3-(morpholin-4-yl)propoxy]biphenyl-4-yl}carbonyl)amino]-N-hydroxy-N′-methylpropanediamide]
11 | < 0.01 µM | CNC(=O)C(C(=O)NO)N(C)C(=O)c1ccc(C#Cc2ccc(OCC(O)CO)cc2)cc1 (stereo not shown) [Compound 320, 2-{[(4-{[4-(2,3-dihydroxypropoxy)phenyl]ethynyl}phenyl)carbonyl](methyl)amino}-N-hydroxy-N′-methylpropanediamide]
12 | < 0.01 µM | O=C(NC(C(=O)NO)C(=O)NCCOc1ccccc1)c1ccc(-c2ccc(OCCO)cc2)cc1 (stereo not shown) [Compound 138, N-hydroxy-2-({[4′-(2-hydroxyethoxy)biphenyl-4-yl]carbonyl}amino)-N′-(2-phenoxyethyl)propanediamide]
13 | 0.01 to 0.1 µM | CNC(=O)C(C(=O)NO)N(C)C(=O)c1ccc(-c2ccc(CNC3CC3)cc2)cc1 (stereo not shown) [Compound 205, 2-[({4′-[(cyclopropylamino)methyl]biphenyl-4-yl}carbonyl)(methyl)amino]-N-hydroxy-N′-methylpropanediamide]
14 | > 0.1 µM | CN(C)C(=O)C(NC(=O)c1ccc(-c2ccc(OCCO)cc2)cc1)C(=O)NO (stereo not shown) [Compound 118, N′-hydroxy-2-({[4′-(2-hydroxyethoxy)biphenyl-4-yl]carbonyl}amino)-N,N-dimethylpropanediamide]
15 | 0.01 to 0.1 µM | CNC(=O)C(C(=O)NO)N(C)C(=O)c1ccc(-c2ccc(OCc3ccc(-c4nnn[nH]4)cc3)cc2)cc1 (stereo not shown) [Compound 93, N-hydroxy-N′-methyl-2-{methyl[(4′-{[4-(1H-tetrazol-5-yl)benzyl]oxy}biphenyl-4-yl)carbonyl]amino}propanediamide]
16 | 0.01 to 0.1 µM | CNC(=O)C(C(=O)NO)N(C)C(=O)c1ccc(-c2ccc3nonc3c2)cc1 (stereo not shown) [Compound 189, 2-{[4-(2,1,3-benzoxadiazol-5-yl)benzoyl](methyl)amino}-N-hydroxy-N′-methylpropanediamide]
17 | < 0.01 µM | CNC(=O)C(C(=O)NO)N(C)C(=O)c1ccc(-c2ccc(-c3ccc(CN4CCOCC4)o3)cc2)cc1 (stereo not shown) [Compound 479, N-hydroxy-N′-methyl-2-[methyl({4′-[5-(morpholin-4-ylmethyl)furan-2-yl]biphenyl-4-yl}carbonyl)amino]propanediamide]
18 | 0.01 to 0.1 µM | CNC(=O)C(C(=O)NO)N(C)C(=O)c1ccc(-c2ccc(N3CCN(C)CC3)cc2)cc1 (stereo not shown) [Compound 267, N-hydroxy-N′-methyl-2-(methyl {[4′-(4-methylpiperazin-1-yl)biphenyl-4-yl]carbonyl}amino)propanediamide]

Row | IC50 | Compound
19 | > 0.1 µM | CN(C(=O)c1ccc(-c2ccccc2)cc1)C(C(=O)NO)C(=O)NCc1ccncc1 (stereo not shown) [Compound 178, 2-[(biphenyl-4-ylcarbonyl)(methyl)amino]-N-hydroxy-N′-(pyridin-4-ylmethyl)propanediamide]
20 | 0.01 to 0.1 µM | CNC(=O)C(C(=O)NO)N(C)C(=O)c1ccc(C#Cc2ccn(C)c2)cc1 (stereo not shown) [Compound 424, N-hydroxy-N′-methyl-2-[methyl({4-[(1-methyl-1H-pyrrol-3-yl)ethynyl]phenyl}carbonyl)amino]propanediamide]
21 | 0.01 to 0.1 µM | CNC(=O)C(C(=O)NO)N(C)C(=O)c1ccc(-c2ccc(C(=O)N(C)C)cc2)cc1 (stereo not shown) [Compound 252, N-[1-(hydroxyamino)-3-(methylamino)-1,3-dioxopropan-2-yl]-N,N′,N′-trimethylbiphenyl-4,4′-dicarboxamide]
22 | 0.01 to 0.1 µM | CNC(=O)C(C(=O)NO)N(CCOC)C(=O)c1ccc(-c2ccccc2)cc1 (stereo not shown) [Compound 166, 2-[(biphenyl-4-ylcarbonyl)(2-methoxyethyl)amino]-N-hydroxy-N′-methylpropanediamide]
23 | < 0.01 µM | CNC(=O)C(C(=O)NO)N(C)C(=O)c1ccc(-c2ccc(C)cc2F)cc1 (stereo not shown) [Compound 23, 2-{[(2′-fluoro-4′-methylbiphenyl-4-yl)carbonyl](methyl)amino}-N-hydroxy-N′-methylpropanediamide]
24 | 0.01 to 0.1 µM | CCCS(=O)(=O)Nc1ccc(-c2ccc(C(=O)N(C)C(C(=O)NC)C(=O)NO)cc2)cc1 (stereo not shown) [Compound 78, N-hydroxy-N′-methyl-2-[methyl({4′-[(propylsulfonyl)amino]biphenyl-4-yl}carbonyl)amino]propanediamide]
25 | 0.01 to 0.1 µM | CNC(=O)C(C(=O)NO)N(C)C(=O)c1ccc(-c2ccc(NCCCN3CCOCC3)cc2)cc1 (stereo not shown) [Compound 86, N-hydroxy-N′-methyl-2-{methyl[(4′-{[3-(morpholin-4-yl)propyl]amino}biphenyl-4-yl)carbonyl]amino}propanediamide]
26 | > 0.1 µM | CN(C(=O)c1ccc(-c2ccccc2)cc1)C(C(=O)NO)C(=O)NCc1ccccc1 (stereo not shown) [Compound 62, N-benzyl-2-[(biphenyl-4-ylcarbonyl)(methyl)amino]-N′-hydroxypropanediamide]
27 | < 0.01 µM | CNC(=O)C(C(=O)NO)N(C)C(=O)c1ccc(-c2cc(F)c(NC)cc2F)cc1 (stereo not shown) [Compound 67, 2-[{[2′,5′-difluoro-4′-(methylamino)biphenyl-4-yl]carbonyl}(methyl)amino]-N-hydroxy-N′-methylpropanediamide]
28 | 0.01 to 0.1 µM | CNC(=O)C(C(=O)NO)N(C)C(=O)c1ccc(-c2ccc3c(c2)ncn3C)cc1 (stereo not shown) [Compound 281, N-hydroxy-N′-methyl-2-{methyl[4-(1-methyl-1H-benzimidazol-5-yl)benzoyl]amino}propanediamide]
29 | 0.01 to 0.1 µM | CNC(=O)C(C(=O)NO)N(C)C(=O)c1ccc(-c2ccc(NCCCCO)cc2)cc1 (stereo not shown) [Compound 20, N-hydroxy-2-[({4′-[(4-hydroxybutyl)amino]biphenyl-4-yl}carbonyl)(methyl)amino]-N′-methylpropanediamide]
30 | < 0.01 µM | CNC(=O)C(C(=O)NO)N(C)C(=O)c1ccc(C#Cc2ccc(CNCc3cc(C)on3)cc2)cc1 (stereo not shown) [Compound 482, N-hydroxy-N′-methyl-2-{methyl[(4-{[4-({[(5-methyl-1,2-oxazol-3-yl)methyl]amino}methyl)phenyl]ethynyl}phenyl)carbonyl]amino}propanediamide]
31 | < 0.01 µM | CNC(=O)C(C(=O)NO)N(C)C(=O)c1ccc(-c2ccc(F)c(Cl)c2)cc1 (stereo not shown) [Compound 223, 2-{[(3′-chloro-4′-fluorobiphenyl-4-yl)carbonyl](methyl)amino}-N-hydroxy-N′-methylpropanediamide]
32 | < 0.01 µM | CNC(=O)C(C(=O)NO)N(C)C(=O)c1ccc(-c2ccc(Cl)c(Cl)c2)cc1 (stereo not shown) [Compound 224, 2-{[(3′,4′-dichlorobiphenyl-4-yl)carbonyl](methyl)amino}-N-hydroxy-N′-methylpropanediamide]
33 | 0.01 to 0.1 µM | CNC(=O)C(C(=O)NO)N(C)C(=O)c1cnc(-c2ccc(OC)cc2)c(F)c1 (stereo not shown) [Compound 457, 2-[{[5-fluoro-6-(4-methoxyphenyl)pyridin-3-yl]carbonyl}(methyl)amino]-N-hydroxy-N′-methylpropanediamide]

Row | Compound | IC50
34 | CNC(=O)C(C(=O)NO)N(C)C(=O)c1ccc(-c2ccc(OCCCCO)cc2)cc1 (stereo not shown) [Compound 180, N-hydroxy-2-[{[4′-(4-hydroxybutoxy)biphenyl-4-yl]carbonyl}(methyl)amino]-N′-methylpropanediamide] | < 0.01 µM
